Measurements taken from PMC10961359, “Targeting hexokinase 2 for oral cancer therapy: structure-based design and validation of lead compounds” (Frontiers in Pharmacology, 2024).

Key:
[1] = test system: mitochondrial HK2 (mitoHK2) in Cal27 cells; experiment: Western blot fractionation, mitoHK2 dissociation; type: cell-based; conditions: 4 h
Experimental: Cal27 cells were treated with the test compound (1 million cells per treatment for 4 h) and were processed for mitochondria isolation using a homogenization buffer containing 210 mM mannitol, 70 mM sucrose, 5 mM tris-HCl, (pH 7.5) and 1 mM EDTA (pH 7.5). The cell pellet was sheared with a total of 90 strokes in the homogenization buffer in a span of 1 h on ice. The lysate was centrifuged at 800 rpm for 10 min and the mitochondria enriched supernatant was isolated. The pellet was again lysed using RIPA lysis buffer to obtain the cytosolic fraction. The mitochondrial fractions and the cytosolic fractions were loaded on a 10% SDS-PAGE gel. The antibodies used were anti-HK2 antibody (CST, Cat#2867), anti β-actin antibody (CST, Cat#4970) and mitochondrial marker anti-VDAC antibody (CST, Cat# 4661). The whole cell lysates were obtained using RIPA lysis buffer alone. The quantifications were performed using ImageJ software.
(§1) Mitochondria utilize the oxidizable substrates to produce a membrane potential as the proton gradient ([Sivandzade et al., 2019]). […] To determine the change in MMP post-treatment with HK2 inhibitors, the cells were treated with 200 nM of TMRE (tetramethyl rhodamine ethyl ester, a cell-permeant cationic dye readily sequestered by active mitochondria) and flow cytometric analyses of TMRE uptake was carried out. […]

LC3B in Cal27 cells = experiment: Immunofluorescence LC3B / MitoTracker Red colocalization (mitophagy); type: cell-based; conditions: Cal27, 4 h
Experimental: Cal27 cells were treated with respective compounds for 4h, and washed with PBS and fixed with 100% methanol. The non-specific antibody binding was blocked by incubating with 5% goat serum in 0.3% Triton X-100 for 1 h. The diluted primary antibody (LC3B mAb, CST Cat# 3868) and MitoTracker Red (CST, Cat# 9082) were applied and samples were incubated overnight at 4°C followed by addition of fluorescently labelled secondary antibody for 2 h at room temperature and visualized using Leica DMi8 laser scanning confocal microscope using the Leica LAS X software. To analyze the extent of mitophagy in the captured images, the colocalization area of green (LC3B) and red (Mito-Red) portions were quantified using the LAS X software. The LC3B MFI was also quantified and represented in gray values.
as §1, with “2019]). Loss in mitochondrial membrane potential (MMP) is a direct measurement of mitochondrial stress and may cause the release of apoptotic factors leading to cell death ([Zhang et al., 2017]).” for “2019]).”

FaDu cells [2] = experiment: 2-NBDG glucose uptake assay (flow cytometry), FaDu; type: cell-based; conditions: 10 μM and 30 μM, 72 h, vs DMSO control
Experimental: (§2) FaDu and Cal27 cells were treated with test compounds (0.2 million cells per treatment) and were incubated for 1 h with 100 μM of 2-NBDG (Invitrogen, N13195), in glucose free medium, washed with ice-cold PBS, and re-suspended in 500 μL of PBS and maintained on ice to perform flow cytometric analyses within 30 min. The mean fluorescent intensity (MFI) readout reflects the amount of fluorescent glucose analog taken up by the cells, providing insight into their glucose uptake capacity. The percent (%) cell population positive for glucose uptake (shown with a right shift of the histogram peaks) were also plotted for both the cell lines. For MMP analysis, cells were incubated with 200 nM of TMRE (Invitrogen, T669) for 30 min. For each measurement, data was collected for 10,000 events using a BD FACS Aria III (Becton Dickinson, San Jose, CA) instrument.
(§3) 2-[N-(7-Nitrobenz-2-oxa-1,3-diaxol-4-yl) amino]-2-deoxyglucose (2-NBDG) uptake into cells happens via glucose transporters and post uptake 2-NBDG gets phosphorylated by hexokinases. Since cancer cells represent higher glycolytic activity, the inhibition of HK2 activity in cancer cells is actively reflected in the inhibition of 2-NBDG uptake ([Hung et al., 2022]; [Li et al., 2022]). […] In this assay, the MFI of intracellular 2-NBDG serves as a quantitative measure of cellular glucose uptake. […] This finding is further supported by the increased % population of 2-NBDG positive cells in Cal27 cells compared to FaDu cells (Figure 3).

[3] = Cytotoxicity in normal HFF1 cells; type: cell-based, human; conditions: human, HFF1 cells (normal)
HFF1 = experiment: Cytotoxicity in normal HFF1 cells; type: cell-based, human
[4] = test system: EGFR tyrosine kinase phosphorylation in Cal27 cells; experiment: Western blot pEGFR in Cal27 lysates; type: cell-based; conditions: Cal27, 30 µM, 4 h post-treatment
Cal27 cells = experiment: 2-NBDG glucose uptake assay (flow cytometry), Cal27; type: cell-based; conditions: Cal27, 10 μM and 30 μM, 72 h, vs DMSO control
Experimental: as §2, §3

FaDu cells [5] = experiment: Cell cycle analysis (propidium iodide, flow cytometry), FaDu; type: cell-based; conditions: 10 and 30 μM, 72 h
Experimental: FaDu and Cal27 cells were treated with the test compounds (0.5 million cells per treatment) for 72 h, and harvested for cell cycle analysis (Cat# BD340242) and apoptosis analysis (Cat# BD556547) by flow cytometry according to manufacturer’s instructions.
To determine the effect of HK2 inhibition in the progression of the cell cycle, flow cytometric analysis of compound-treated FaDu and Cal27 cells was carried out 72 h post-treatment. Cell cycle analysis is carried out to quantify the DNA content and estimate the percentages of the cell population in different cell cycle phases via propidium iodide staining. […] To determine the apoptosis-inducing activity of HK2 inhibitors, 10 and 30 μM of compounds H2 and H10 treated FaDu and Cal27 cells were stained with annexin V conjugated with FITC, followed by propidium iodide staining.

FaDu cells [6] = experiment: Mitochondria membrane potential by TMRE uptake, FaDu; type: cell-based; conditions: 30 μM, 4 h
Experimental: as §2, §1

## COc1ccc(CNC(=O)c2nc3ccccc3s2)cc1O [Compound 14, N-(3-hydroxy-4methoxybenzyl)benzo[d]thiazole-2-carboxamide]
[1]; Cal27, 30 μM
  mitochondrial HK2 (mitoHK2) dissociation: induced the dissociation of mitoHK2
[1]; Cal27 whole cell lysate, 30 μM
  expression of total HK2 protein: without altering the expression of total HK2 protein
LC3B in Cal27 cells
  LC3B expression and co-localization with MitoTracker Red (mitophagy): increase in LC3B expression
FaDu cells [2]
  2-NBDG MFI: significant reduction
[3]
  CC50: > 100 µM
HFF1; CC50/GI50, HFF1 vs Cal27
  Selectivity index (Cal27): >4.6
HFF1; CC50/GI50, HFF1 vs FaDu
  Selectivity index (FaDu): >1.6
[4]
  EGFR tyrosine kinase phosphorylation: does not significantly impact
Cal27 cells
  2-NBDG MFI: significant reduction
FaDu cells [5]
  subG1 phase population: increase in subG1 phase population
FaDu cells [6]
  MMP reduction compared to H10 and CCCP: more effective in reducing the MMP
